Data: article PMC2683906 (Chemical research in toxicology, 2009)

Assays:
globin = conditions: rats and mice exposed to 1,3-[2,3-14C]-butadiene; cited from earlier work
[1] = 6.25 to 1000 ppm, mice and rats; cited from earlier work
[2] = cited from earlier work
[3] = rodents given BDD or BMO; cited from earlier work
[4] = cited from earlier work; remark: listed apart in the source
[5] = buffer, pH 9
[6] = buffer, pH 7.4
[7] = buffer, pH 9; remark: listed apart in the source

C=[14CH][14CH]=C [1,3-[2,3-^14C]-butadiene]
Total globin radioactivity characterized as trihydroxybutyl adducts (globin): 1−2%

C=CC=C [BD, 1,3-Butadiene]
Tumor formation after long-term inhalation exposure [1]: tumor formation at multiple organ sites | International Agency for Research on Cancer classification [2]: are carcinogenic to humans | National Toxicology Program classification [2]: known to be a human carcinogen

C=CC(O)CO (centres unmarked) [BDD, 3-butene-1,2-diol]
Amount of BDD detected in the urine [3]: < 5% | HMVK-derived mercapturates as share of the administered BDD dose [4]: 4−8%

C=CC(=O)CO [HMVK, hydroxymethylvinyl ketone]
Estimated half-life of HMVK, HMVK + NAL [5]: 45 min | Half-life of HMVK in the absence of nucleophilic amino acids [6]: a Half-life of HMVK when incubated at a concentration of 3 mM at pH 7.4, 37 °C in the absence of nucleophilic amino acids was determined to be 710 min. ND, not determined. Half-lives were estimated assuming pseudo-first order kinetics. Data is representative of typical experimental values. | Estimated half-life of HMVK, HMVK + L-valinamide [7]: 13.5 min | Time at which all of HMVK was consumed (HMVK 3 mM, NAC 6 mM, pH 7.4, 37 °C): 0.5 h | Estimated half-life of HMVK, HMVK + NAC (buffer, pH 7.4): instantaneous
